Measurements from publication PMC11056991, “Promising Anticancer Prodrugs Based on Pt(IV) Complexes with Bis-organosilane Ligands in Axial Positions” (Journal of Medicinal Chemistry, 2024).
Where two headings read alike, the source gives them in different places.

Legend:
[1] = tested on: HCT 116 human colon cancer cells; test: MTT cell viability assay, HCT 116; type: cell-based; conditions: for IC50: 48 h
Procedure: HIEC6 human healthy intestinal cells and HCT 116 and HT-29 human colon cancer cells were supplied by ATCC. Colon cancer cells were cultured in Dulbecco’s modified Eagle’s medium (DMEM) for HCT 116 and HT-29 supplemented with fetal bovine serum (10%). HIEC6 cells were cultured in Opti-MEM supplemented with fetal bovine serum (4%), HEPES (20 mM), glutamine (10 mM), and epidermal growth factor (10 ng/mL). Cells were maintained at 37 °C in a humidified atmosphere containing 5% CO2. Cells were seeded at 30% confluence in DMEM for HCT 116 and in Opti-MEM for HIEC6; after cell adhesion, HIEC6 cells were cultured in DMEM for 24h before being treated. All cells were treated with the indicated components at concentrations of 0.25–50 μM and incubated for 1–5 days as specified.
The MTT assay relies on a colorimetric reaction based on the capacity of living cells to reduce MTT to formazan and change the color to purple, which is easily measured by colorimetry. This assay estimates the cellular viability after the indicated treatments. Cells were treated with MTT (1:10 in culture medium) and incubated at 37 °C for 3 h for HCT 116 and HT-29 or 6 h for HIEC6. After removal of the medium, the formazan was resuspended in DMSO, transferred to p96 plates, and analyzed by a SpectraFLUOR (Tecan) at 542 nm. In all cases, viability was measured in duplicates of each point in three independent experiments.

[2] = tested on: HT-29 human colon cancer cells; conditions: MTT, Figure S14E
Procedure: Cells were maintained at 37 °C in a humidified atmosphere containing 5% CO2.

HCT 116 cancer cells = conditions: data not shown
Procedure: Cell were trypsinized, centrifuged at 500g for 5 min, resuspended in PBS, and stained with 7-aminoactinomycin D (7AAD, Santa Cruz Biotechnology), a DNA intercalating dye excluded from viable cells due to membrane impermeability. The 7AAD was excited at 546 nm and analyzed at 656 nm. Only apoptotic and necrotic cells are stained by these dyes. After incubation for 50 min in the dark at 37 °C, the cells were analyzed by flow cytometry (CytoFlex, Beckman Coulter). The percentages of cells stained with or without dyes were analyzed using the CytExpert Software (Beckman Coulter).

[3] = 195Pt NMR reduction kinetics with ascorbic acid; type: physicochemical; conditions: AsA 4:1 excess, DMSO/D2O (4:1), 37 °C, 2, 6, 24 h
Procedure: (§1) AsA presents an intracellular concentration of 1 mM, whereas the GSH concentration is 2 mM.[38] This reactivity was monitored by ^195Pt NMR at different times. Thus, by analyzing the different regions where the signals of Pt(II)/Pt(IV) species appear, it is possible to identify and assign the different compounds formed during the reaction. In most cases, the regions where the Pt(II) and Pt(IV) signals appear are separated by more than 3000 ppm.[33]
We first studied the reduction of the complexes against AsA, monitoring the reaction in both the Pt(IV) and Pt(II) region at 2, 6, and 24 h. In both cases, we used a mixture of DMSO/D2O (4:1) to reach the solubilization of the complexes and the AsA. In the Pt(IV)-biSi-1 reduction experiment, during the first hour, only the signal at 1210 ppm appeared in the Pt(IV) region (Figure S13A), which corresponds to the original complex, and no signal was detected in the Pt(II) region.
Each solution was then slowly added to 100 μL of a solution of the corresponding reducing agent (AsA or GSH in an excess of 4:1 against each complex) in D2O at 37 °C. After that, 100 μL of DMSO-d6 was added carefully to each mixture, reaching a final concentration of […] (DMSO-d6/D2O). All of these mixtures were performed using a thermoshaker. Each sample was monitored by ^195Pt NMR at 2, 6, and 24 h.

[4] = 195Pt NMR reduction kinetics with glutathione; type: physicochemical; conditions: GSH 4:1 excess, DMSO/D2O (4:1), 37 °C, 2, 6, 24 h
Procedure: as §1
The reactivity of both complexes toward the reducing agent GSH was also studied using the DMSO/D2O (4:1) mixture. […] In the Pt(II) region, two signals appeared after 24 h at −2728 and −3405 ppm (Figure 2G). The first value is consistent with the cis-PtN2SX fraction,[41],[42] meaning that this species, once reduced to its Pt(II) homologue, coordinates with GSH by displacing a chloride ligand. The second signal corresponds to another Pt(II) moiety with more than one ligand containing sulfur atoms. […]
Each solution was then slowly added to 100 μL of a solution of the corresponding reducing agent (AsA or GSH in an excess of 4:1 against each complex) in D2O at 37 °C. […] Each sample was monitored by ^195Pt NMR at 2, 6, and 24 h.

[5] = tested on: histone gH2Ax foci at double-strand DNA breaks in HCT 116 cells; test: Immunofluorescence of histone gH2Ax DNA damage foci; type: cell-based, human; conditions: HCT 116, 0.5 μM, 48 h
Procedure: Confocal imaging of the DNA damage response was followed by immunofluorescence of histone gH2Ax foci at double-strand DNA breaks (DSB) (Figure 4A). […] However, none of the Pt(IV) prodrugs were able to increase p53 levels even at concentrations higher than those needed to reduce cell viability.
Cells in coverslips were washed three times and fixed with 4% paraformaldehyde in PBS (pH 7.4) for 10 min, washed again, permeabilized (PBS [pH7.4], 0.5% Triton X-100, 0.2% BSA) for 5 min, blocked (PBS [pH7,4], 0,05% Triton X-100, 5% BSA) for 1 h at room temperature, and incubated with primary antibody overnight at 4 °C. After three washes (5 min), cells were incubated with secondary antibody for 1 h at room temperature, and the nuclei were stained with 4,6-diamidino-2-phenylindole (DAPI, 1:10,000, Invitrogen) for 10 min. Slides were mounted, and images were acquired using an FV3000 confocal microscope (Olympus) with a 63× objective. The antibodies rabbit monoclonal anti-Histone H2A.X (D17A3) (dilution 1:400) and mouse monoclonal anti-Lamin A/C (4C11) (dilution 1:400) were purchased from Cell Signaling (Danvers, Massachusetts, USA). Donkey Anti-Rabbit-Alexa Fluor 488 (dilution 1:500) and Donkey Anti-Mouse-Alexa Fluor 594 (dilution 1:500) were purchased from Invitrogen (Barcelona, Spain).

[6] = tested on: HCT 116 colon carcinoma subcutaneous tumors; test: Subcutaneous HCT 116 tumor model in nude mice; type: in vivo, athymic nude Foxn1nu mice
Excerpt: Tumor growth was monitored until tumors in the control group reached the ethically allowed size. […] On the other hand, many types of cancer cause a general increase in lactate dehydrogenase (LDH), and it is considered a nonspecific tumor marker.[57]
To establish the subcutaneous tumor, 2 × 10^6 HCT 116 colon carcinoma cells were resuspended 1:1 in culture media and Matrigel (BD) and injected subcutaneously. Six to eight week old female athymic nude Foxn1nu mice (Harlan Iberica) were used for each point. […] Two therapeutic approaches were compared: acute and chronic (see diagram in Figure 5). Acute treatment was performed (three injections of 10 mg/kg); chronic treatment relied on injections of 1 mg/kg every 3–4 days. […] Tumor growth was monitored by personnel unaware of the group distribution. Experiments were finalized when control animals achieved the maximum tumor size approved by the Ethical Committee. Animals were sacrificed by euthanasia by CO2 inhalation. Selected organs were collected from each animal for histopathological analysis. Samples were fixed in 4% paraformaldehyde for 2 h followed by cold 70% ethanol. Plasma serum was collected to determine hepatic and renal toxicity of treatments using a SPIN200E automatic bioanalyzer (Spinreact).

SMILES: CC(C)N.CC(C)N.CCO[Si](CCCNC(=O)[O][Pt]([Cl])([Cl])[O]C(=O)NCCC[Si](OCC)(OCC)OCC)(OCC)OCC [Pt(IV)-biSi-2, cis-Dichloro(diisopropylamine)-trans-[3-(triethoxysilyl)propylcarbamate]platinum(IV)]
- Fold greater cytotoxicity than cisplatin, HCT 116 ([1]; 5 μM, 5 days chronic treatment): 8–10 fold
- Cell viability, HCT 116 0.5uM 2 days ([1]; MTT, 0.5 uM, 2 days): 49.4 ± 3.2%
- Reduction of viability (cytotoxicity) of HCT 116 tumor cells ([1]; MTT, 0.5 μM, 2 days): 50%
- Cell viability, HCT 116 0.5uM 5 days ([1]; MTT, 0.5 uM, 5 days): 60.2 ± 14.4%
- Reduction of tumor cell viability (HCT 116) ([1]; MTT, 0.5 μM, 5 days): 40%
- Reduction in viability of cancer cells (HCT 116) ([1]; MTT, 5 μM, 2 days): 90%
- Cell viability, HCT 116 5uM 2 days ([1]; MTT, 5 uM, 2 days, (final complexes, Figure 3B)): 4.4 ± 0.8%
- Cells survived, HCT 116 ([1]; MTT, 5 μM, 5 days chronic treatment): 5%
- IC50 ([1]; MTT, Figure 3C and text, read-out: IC50 (μM), HCT 116): 0.94 µM
- IC50 ([1]; MTT, supplementary CSV, read-out: IC50 (uM) HCT 116): 0.9 ± 0.6 µM
- Cell viability, HCT 116 […] 2 days ([1]; MTT, 2 days): 59.6 ± 2.9%
- Cell viability, HCT 116 […] 2 days ([1]; MTT, second (last) column of this head): 59.1 ± 0.8%
- Cytotoxic effect on colon cancer cells (HT-29) [2]: strong cytotoxic effect
- Cytotoxicity by flow cytometry, HCT 116 (HCT 116 cancer cells): stronger effect
- Reduction of the Pt(IV) complex by AsA (Pt(IV) signal in 195Pt NMR) [3]: no signals were observed in the Pt(IV) region after reaction for 2 h
- Reduction of the Pt(IV) complex by GSH (Pt(IV) signal in 195Pt NMR) [4]: practically disappeared after 24 h
- Unresolved DSB / histone H2Ax foci [5]: foci were retained at 48 h
- Tumor volume versus control (PBS) ([6]; i.p., acute and chronic treatments): significantly reduced tumor volume
- Tumor growth compared with cisplatin ([6]; i.p., acute and chronic treatments, Pt concentration one-third that of cisplatin): reduced tumor growth more than cisplatin
- LDH levels (tumor marker) ([6]; serum, versus cisplatin treatment): reduced LDH levels significantly more
